Measured values reported in patent US6683055B1, “Low molecular weight inhibitors of complement proteases” (BASF Aktiengesellschaft, priority 1999, dated 2004).
Where a name gives a salt, the structure may show the parent alone.

Key:
Format in all cases: biochemical
[1] = biological target: T1, C1r from human plasma, activated, two-chain form (Homo sapiens, UniProt P00736); assay: Color substrate test for C1r inhibition (Example A); conditions: amidolytic C1r activity, substrate Cbz-Gly-Arg-S-Bzl; read-out: C1R IC50 according to Example A
T1 construct: from tissue; host or cells: human plasma
T1 sequence (P00736 18-463 partner limits assumed): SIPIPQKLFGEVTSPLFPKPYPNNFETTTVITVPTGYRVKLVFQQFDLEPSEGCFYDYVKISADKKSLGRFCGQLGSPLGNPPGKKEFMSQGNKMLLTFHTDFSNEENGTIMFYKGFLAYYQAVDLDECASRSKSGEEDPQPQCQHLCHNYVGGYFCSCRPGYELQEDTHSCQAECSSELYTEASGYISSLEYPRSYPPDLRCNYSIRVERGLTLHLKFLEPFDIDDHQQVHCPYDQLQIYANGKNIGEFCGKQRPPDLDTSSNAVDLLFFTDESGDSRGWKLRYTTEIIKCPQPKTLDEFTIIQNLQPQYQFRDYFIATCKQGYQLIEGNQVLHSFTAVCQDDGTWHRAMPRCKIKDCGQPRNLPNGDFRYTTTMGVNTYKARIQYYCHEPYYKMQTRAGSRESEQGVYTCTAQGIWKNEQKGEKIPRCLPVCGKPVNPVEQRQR
T1 sequence (P00736 464-705 limits assumed): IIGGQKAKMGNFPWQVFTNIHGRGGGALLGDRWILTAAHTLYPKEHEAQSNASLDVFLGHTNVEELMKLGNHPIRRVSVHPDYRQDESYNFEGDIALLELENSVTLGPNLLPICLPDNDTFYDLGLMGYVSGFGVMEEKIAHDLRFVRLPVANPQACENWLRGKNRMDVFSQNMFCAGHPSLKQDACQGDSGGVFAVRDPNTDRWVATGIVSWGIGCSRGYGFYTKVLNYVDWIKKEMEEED
Excerpt: Color Substrate Test for C1r Inhibition

[2] = biological target: T2, C1s from human plasma, activated, two-chain form (Homo sapiens, UniProt P09871); assay: Color substrate test for C1s inhibition (Example B); conditions: amidolytic C1s activity, substrate Cbz-Gly-Arg-S-Bzl; read-out: C1S IC50 according to Example B
T2 construct: from tissue; host or cells: human plasma
T2 sequence (P09871 16-437 partner limits assumed): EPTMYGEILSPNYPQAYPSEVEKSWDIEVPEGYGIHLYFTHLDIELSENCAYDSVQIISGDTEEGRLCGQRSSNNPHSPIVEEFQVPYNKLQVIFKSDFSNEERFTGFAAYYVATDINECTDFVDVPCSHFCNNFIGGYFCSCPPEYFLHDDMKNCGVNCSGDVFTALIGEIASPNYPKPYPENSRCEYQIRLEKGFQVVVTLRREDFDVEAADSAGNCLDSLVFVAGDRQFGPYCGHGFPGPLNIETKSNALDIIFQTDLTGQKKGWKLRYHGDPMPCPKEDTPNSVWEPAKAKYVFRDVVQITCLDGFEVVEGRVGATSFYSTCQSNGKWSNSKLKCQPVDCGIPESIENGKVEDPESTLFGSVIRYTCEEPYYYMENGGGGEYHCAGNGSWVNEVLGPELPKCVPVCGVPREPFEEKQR
T2 sequence (P09871 438-688 limits assumed): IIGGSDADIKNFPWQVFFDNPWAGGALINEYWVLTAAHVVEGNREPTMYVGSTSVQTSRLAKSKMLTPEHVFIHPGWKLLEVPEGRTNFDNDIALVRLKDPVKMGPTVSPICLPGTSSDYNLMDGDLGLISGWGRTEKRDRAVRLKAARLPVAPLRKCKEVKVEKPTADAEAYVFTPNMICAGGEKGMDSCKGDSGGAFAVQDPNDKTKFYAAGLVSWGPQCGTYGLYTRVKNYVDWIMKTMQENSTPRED
Excerpt: Material and Methods: Color Subrate Test for C1s Inhibition

factor D = biological target: T3, factor D (Homo sapiens, UniProt P00746); assay: Inhibition of the protease factor D (Example D); conditions: substrate Z-Lys-SBzl, run along as inhibitor in the test
T3 construct: purchased Calbiochem 341273
Excerpt: Example D Testing of Inhibitors for Inhibition of the Protease Factor D In the alternative route of the complement system, factor D performs a central function. Owing to the low plasma concentration of factor D, the enzymatic step involving the cleavage of factor B by factor D constitutes the rate-determining step in the alternative route of complement activation. Owing to the limiting role which this enzyme plays in the alternative route, factor D is a target for the inhibition of the complement system. The commercial substrate Z-Lys-SBzl*HCl is converted by the enzyme factor D (literature: Kam, C. M. et al., J. Biol. Chem. 262, 1987, 3444-3451). The detection of the cleaved substrate is effected by reaction with Ellmann's reagent. The product formed is detected spectrophotometrically. The reaction can be monitored online. This permits measurements of enzyme kinetics. [table] The batches are pipetted together into microtiter plates. After mixing of buffer, substrate and Ellmann's reagent (possibly inhibitors), the enzyme reaction is started by adding in each case 5 μl of factor D. Incubation takes place at room temperature for 60 minutes. Measurement at 405 nm for 1 hour at 3 minute intervals The result is plotted graphically. […]

T3 sequence (P00746 26-253): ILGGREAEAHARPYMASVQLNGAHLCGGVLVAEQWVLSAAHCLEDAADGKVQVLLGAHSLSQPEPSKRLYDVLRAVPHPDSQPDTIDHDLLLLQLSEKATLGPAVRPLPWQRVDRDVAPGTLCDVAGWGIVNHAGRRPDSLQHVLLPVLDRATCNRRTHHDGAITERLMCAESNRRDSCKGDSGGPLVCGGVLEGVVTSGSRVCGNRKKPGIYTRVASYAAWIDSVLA

IC50 [1] | IC50 [2] | inhibition of factor D (factor D) | Compound
70 µM | 20 µM | – | N=C(N)c1coc(CNC(=O)[C@@H]2CCCN2C(=O)[C@@H](CC2CCCCC2)NCC(=O)O)c1 [Example 34, HOOC—CH2-(D)Cha-Pro-NH—CH2-5-(3-am)-fur.CH3COOH]
10 µM | 5 µM | – | N=C(N)c1csc(CNC(=O)[C@@H]2C=CCN2C(=O)[C@@H](CC2CCCCC2)NCC(=O)O)c1 [Example 38, HOOC—CH2-(D)Cha-Pyr-NH—CH2-5-(3-am)-thioph.CH3COOH]
2 µM | 10 µM | – | N=C(N)c1csc(CNC(=O)[C@@H]2CCN2C(=O)[C@H](NCC(=O)O)C2CCCCC2)c1 [Example 39, HOOC—CH2-(D)Chg-Aze-NH—CH2-5-(3-am)-thioph]
2 µM | 2 µM | – | N=C(N)c1csc(CNC(=O)[C@@H]2C=CCN2C(=O)C(NCC(=O)O)C2CCCCCC2)c1 (some centres unmarked) [Example 41, HOOC—CH2-Cheg-Pyr-NH—CH2-5-(3-am)-thioph.CH3COOH]
0.7 µM | 1 µM | – | N=C(N)c1csc(CNC(=O)[C@@H]2C=CCN2C(=O)C(NCC(=O)O)C2CCCC2)c1 (stereo partly drawn) [Example 42, HOOC—CH2-Cpg-Pyr-NH—CH2-5-(3-am)-thioph.CH3COOH]
6 µM | 10 µM | – | N=C(N)c1csc(CNC(=O)[C@@H]2CCCN2C(=O)[C@H](NCC(=O)O)C2CCCCC2)c1 [Example 43, HOOC—CH2-(D)Chg-Pro-NH—CH2-5-(3-am).thioph.2HCl]
40 µM | 3 µM | – | N=C(N)c1coc(CNC(=O)[C@@H]2C=CCN2C(=O)[C@@H](CC2CCCCC2)NCC(=O)O)c1 [Example 44, HOOC—CH2-(D)Cha-Pyr-NH—CH2-5-(3-am)-fur.CH3COOH]
6 µM | 20 µM | – | N=C(N)c1csc(CNC(=O)C2SCCN2C(=O)[C@H](NCC(=O)O)C2CCCCC2)c1 (stereo partly drawn) [Example 45, HOOC—CH2-(D)Chg-Thz-2-CO—NH—CH2-5-(3-am)-thioph]
40 µM | 20 µM | – | N=C(N)c1csc(CNC(=O)C2SCCN2C(=O)[C@@H](CC2CCCCC2)NCC(=O)O)c1 (stereo partly drawn) [Example 46, HOOC—CH2-(D)Cha-Thz-2-CO—NH—CH2-5-(3-am)-thioph.2HCl]
10 µM | 50 µM | – | N=C(N)c1csc(CNC(=O)[C@@H]2CC3CCCCC3N2C(=O)[C@@H](CC2CCCCC2)NCC(=O)O)c1 (some centres unmarked) [Example 47, HOOC—CH2-(D)Cha-(L)Ohi-2-CO—NH—CH2-5-(3-am)-thioph.HCl]
50 µM | 30 µM | – | N=C(N)c1csc(CNC(=O)[C@@H]2CC3CCCCC3N2C(=O)[C@H](NCC(=O)O)C2CCCCC2)c1 (some centres unmarked) [Example 48, HOOC—CH2-(D)Chg-(L)Ohi-2-CO—NH—CH2-5-(3-am)-thioph.HCl]
1 µM | 1 µM | – | N=C(N)c1csc(CNC(=O)C2C=CCN2C(=O)C(NCC(=O)O)C2CCCCC2)c1Cl (stereo not drawn) [Example 49, HOOC—CH2-(D)Chg-Pyr-NH—CH2-5-(4-Cl-3-am)-thioph.CH3COOH]
20 µM | 3 µM | – | N=C(N)c1csc(CNC(=O)C2C=CCN2C(=O)C(CC2CCCCC2)NCC(=O)O)c1Cl (stereo not drawn) [Example 50, HOOC—CH2(D)Cha-Pyr-NH—CH2-5-(4-Cl-3-am)-thioph.CH3COOH]
40 µM | 3 µM | – | Cc1c(C(=N)N)csc1CNC(=O)[C@@H]1C=CCN1C(=O)[C@H](NCC(=O)O)C1CCCCC1 [Example 51, HOOC—CH2-(D)Chg-Pyr-NH—CH2-5-(4-Me-3-am)-thioph.CH3COOH]
– | – | effective inhibitor | N=C(N)c1ccc2cc(OC(=O)c3ccc(N=C(N)N)cc3)ccc2c1 [FUT-175]
8 µM | 20 µM | – | HOOC—CH2-(D)Cha-Pyr-NH—CH2-5-(3-Me-2-am)-thioph.CH3COOH [Example 53]
10 µM | 4 µM | – | HOOC—CH2-(D,L)Cpg-Pyr-NH—CH2-5-(3-Me-3-am)-thioph.CH3COOH [Example 52]
> 100 µM | 5 µM | – | HOOC—CH2—CH2-(D)Cha-Pro-NH-CH2-5-(2-am)-thioph.CH3COOH [Example 30]
